We go through six compounds from patent US20080045507A1, “SUBSTITUTED BENZAMIDE MODULATORS OF THE HISTAMINE H3 RECEPTOR” (priority 2006, published 2008).

The structures appear in SMILES notation.

By Ki is commonly meant the equilibrium dissociation constant of an inhibitor or competing ligand from its target.

For assay [1], the target named is T1, human H3 receptor (Homo sapiens, UniProt Q9Y5N1).
T1 construct: expressed in transfected cells
Nature of the assay: H3 receptor binding, cloned human H3 receptor stably expressed in SK-N-MC cells. The conditions noted are these: average of results. As to the method:
(§1) Binding of compounds to the cloned human and rat H3 receptors, stably expressed in SK-N-MC cells, was performed as described by Barbier, A. J. et al. (Br. J. Pharmacol. 2004, 143(5), 649-661). Data for compounds tested in these assays are presented in Table 1 (human) and Table 2 (rat), as an average of the results obtained.

Assay [2] concerns the target T2, rat H3 receptor (Rattus norvegicus, UniProt Q9QYN8).
T2 construct: expressed in transfected cells
Nature of the assay: H3 receptor binding, cloned rat H3 receptor stably expressed in SK-N-MC cells. The conditions noted are these: average of results. The protocol:
as §1

Assay [3] deals with T1, human H3 receptor. Nature of the assay: Cyclic AMP accumulation, SK-N-MC subline with reporter construct and human H3 receptor. The assay is classed as cell-based. The conditions noted are these: cAMP accumulation, SK-N-MC reporter cells expressing human H3; average of results; read-out: Human pA2 (converted). The text has this: (§2) Sublines of SK-N-MC cells were created that expressed a reporter construct and either the human or rat H3 receptor. The pA2 values were obtained as described by Barbier et al. (2004). Data for compounds tested in these assays are presented in Table 3, as an average of the results obtained (NT=not tested).

The target in assay [4] is T2, rat H3 receptor. Briefly: Cyclic AMP accumulation, SK-N-MC subline with reporter construct and rat H3 receptor. The assay is classed as cell-based. The conditions noted are these: cAMP accumulation, SK-N-MC reporter cells expressing rat H3; average of results; read-out: Rat pA2 (converted).
From the text: as §2
A general note: Cyclic AMP is a second messenger, typically raised through Gs and lowered through Gi signalling.

T2 sequence (Q9QYN8 whole entry): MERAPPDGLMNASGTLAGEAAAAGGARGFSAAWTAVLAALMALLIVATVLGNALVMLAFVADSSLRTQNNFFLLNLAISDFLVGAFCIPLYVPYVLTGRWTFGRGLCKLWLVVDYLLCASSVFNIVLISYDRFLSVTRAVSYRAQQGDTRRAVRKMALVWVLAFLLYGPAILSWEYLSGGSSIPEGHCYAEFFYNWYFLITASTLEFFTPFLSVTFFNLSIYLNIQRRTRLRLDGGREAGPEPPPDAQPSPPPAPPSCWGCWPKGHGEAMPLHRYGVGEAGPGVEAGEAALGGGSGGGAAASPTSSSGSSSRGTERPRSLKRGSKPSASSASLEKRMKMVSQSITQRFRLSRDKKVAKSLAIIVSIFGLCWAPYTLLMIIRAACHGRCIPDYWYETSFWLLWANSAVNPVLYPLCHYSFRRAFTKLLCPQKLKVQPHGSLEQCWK
T1 sequence (Q9Y5N1 whole entry): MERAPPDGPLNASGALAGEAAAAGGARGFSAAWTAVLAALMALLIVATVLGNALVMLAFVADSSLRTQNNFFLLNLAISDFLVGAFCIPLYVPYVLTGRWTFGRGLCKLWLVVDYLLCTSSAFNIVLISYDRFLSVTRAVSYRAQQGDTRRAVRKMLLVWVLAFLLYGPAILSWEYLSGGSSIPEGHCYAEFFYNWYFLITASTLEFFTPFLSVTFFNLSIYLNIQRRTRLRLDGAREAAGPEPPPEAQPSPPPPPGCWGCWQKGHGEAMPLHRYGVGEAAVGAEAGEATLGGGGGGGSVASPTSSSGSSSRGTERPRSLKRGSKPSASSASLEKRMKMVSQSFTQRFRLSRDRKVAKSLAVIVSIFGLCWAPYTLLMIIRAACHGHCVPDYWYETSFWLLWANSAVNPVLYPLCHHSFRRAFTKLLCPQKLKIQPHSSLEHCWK

Take `CC(C)N1CCCN(C(=O)c2ccc(C(O)C3CCCCC3)cc2)CC1` (stereo not shown) [Example 7, [4-(Cyclohexyl-hydroxy-methyl)-phenyl]-(4-isopropyl-[1,4]diazepan-1-yl)-methanone]: the Ki is 2 nM at human H3 receptor [1] and 75 nM on rat H3 receptor [2]. The Kb on human H3 receptor [3] is 0.871 nM; at rat H3 receptor [4], 17.4 nM.

In the case of `O=C(c1ccc(C(O)C2CCCCC2)cc1)N1CCCN(C2CC2)CC1` (stereo not shown) [Example 27, [4-(Cyclohexyl-hydroxy-methyl)-phenyl]-(4-cyclopropyl-[1,4]diazepan-1-yl)-methanone], the inhibition constant (Ki) stood at 1 nM at human H3 receptor [1] and 37 nM at rat H3 receptor [2]. The Kb is 0.955 nM at human H3 receptor [3] and 6.92 nM at rat H3 receptor [4].

Take `O=C(c1ccc(C(=O)N2CCCN(C3CC3)CC2)cc1)C1CCCCC1` [Example 29, (4-Cyclohexanecarbonyl-phenyl)-(4-cyclopropyl-[1,4]diazepan-1-yl)-methanone]: on human H3 receptor [1], the Ki came out at 1 nM. Moreover, the results for the Kb at human H3 receptor [3] and on rat H3 receptor [4] were 0.912 nM and 6.92 nM, respectively.

On to `O=C(c1ccc(C(O)c2ccccc2)cc1)N1CCCN(C2CC2)CC1` (stereo not shown) [Example 30, (4-Cyclopropyl-[1,4]diazepan-1-yl)-[4-(hydroxy-phenyl-methyl)-phenyl]-methanone], for which the Ki at human H3 receptor [1] was found to be 2 nM; at rat H3 receptor [2], 28 nM. Moreover, the Kb is 0.417 nM at human H3 receptor [3] and 1.51 nM on rat H3 receptor [4].

At human H3 receptor [1], `CC(C)C(O)c1ccc(C(=O)N2CCCN(C3CC3)CC2)cc1` (stereo not shown) [Example 32, (4-Cyclopropyl-[1,4]diazepan-1-yl)-[4-(1-hydroxy-2-methyl-propyl)-phenyl]-methanone] registered an inhibition constant (Ki) of 3 nM. Further, the results for the Kb at human H3 receptor [3] and on rat H3 receptor [4] were 0.794 nM and 12 nM, respectively.

As to `CC(C)(C)c1ccc(C(=O)N2CCN(C3CCC3)CC2)cc1` [Example 33, (4-tert-Butyl-phenyl)-(4-cyclobutyl-piperazin-1-yl)-methanone], the figures for the inhibition constant Ki at human H3 receptor [1] and on rat H3 receptor [2] were 5 nM and 152 nM, respectively. The Kb on human H3 receptor [3] was 3.63 nM; on rat H3 receptor [4] it was 13.5 nM.
